Source: patent publication US10570179B2, “Substituted urea depsipeptide analogs as activators of the CLPP endopeptidase” (priority 2016, dated 2020)
In brackets after ≈: the same amount, converted by molar mass. Read-outs that look alike come from different tables or passages of the source. Numbered stars: 1 amine (or outer) side, 2 acyl side, 3 side chain; on linkers, the order of the positions; unused ones are H or OH. Bridge positions count the residues as written; N and C are the ends. Square brackets hold non-standard residues; d marks the D form. Peptide text beside a SMILES is read from it. * marks the point of attachment. Phe(3-CF3) = N[C@@H](Cc1cccc(C(F)(F)F)c1)C(=O)O; Piperazine(2S-CO,4-Me) = CN1CCN[C@H](C(=O)O)C1; NH(1,3-benzodioxol-5-yl) = c1cc2c(cc1N*)OCO2; Phe(3-OMe) = COc1cccc(C[C@H](N)C(=O)O)c1; Phe(3-Me) = Cc1cccc(C[C@H](N)C(=O)O)c1; NH(4-Cl-2-F-phenyl) = Fc1cc(Cl)ccc1N*; Pro(4R-Me) = C[C@H]1CN[C@H](C(=O)O)C1; NH(4-Et-phenyl) = CCc1ccc(N*)cc1; NH(4-Me-phenyl) = Cc1ccc(N*)cc1; CO = O=C([*:1])[*:2]; X2 = Fc1cc(N*)ccc1Cl

How the values were obtained:
[1] = Plasma stability assay; assay type: in vitro ADME, mouse
In short: (§1)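 Compounds at 10 μM final in human or mouse plasma, incubated at 37 °C and sampled at 0, 3, 24 and 48 h in triplicate. Reactions quenched with cold acetonitrile containing warfarin internal standard; parent measured by LC-MS. Half-life from least-squares first-order fit.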

[2] = target: T1, Sa-ClpP (Staphylococcus aureus, UniProt Q2G036); test: ADEP displacement fluorescence polarization assay; assay type: binding, S. aureus; conditions: displacement of FP probe ADEP 2591 from Sa-ClpP
T1 construct: made in house; host or cells: E. coli BL21 (DE3)
T1 sequence (Q2G036 whole entry): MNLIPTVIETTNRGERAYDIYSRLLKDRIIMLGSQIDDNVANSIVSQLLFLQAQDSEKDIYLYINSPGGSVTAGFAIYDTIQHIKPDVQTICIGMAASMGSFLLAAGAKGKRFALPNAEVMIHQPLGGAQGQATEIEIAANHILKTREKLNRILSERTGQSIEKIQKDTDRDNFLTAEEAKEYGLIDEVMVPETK
Description: A fluorescence polarization (FP) assay was used to determine the activity of the disclosed compounds in displacing an ADEP analogue from ClpP. Briefly, the assay was performed in black 384 well, flat bottom, low volume plates (Greiner Bio-One, Monroe, N.C., catalog #784076). 20 μL of a pre-equilibrated (1 hr, room temperature) master mix (15 μM Sa-ClpP, 2% DMSO (v/v) and 50 nM FP probe in TrisHCl, pH 8.0)) was pipetted into each well using a Well-Mate (Thermo Scientific, Waltham, Mass.). Sa-ClpP was prepared as described above for the ClpP activation assay. The FP probe was ADEP 2591 (structure shown above). The ADEP 2591 comprises a TAMRA fluorophore linked to a core based on modified ADEP 2378 via a short alkyl linker. Using pin transfer, approximately 0.4 μL (2% v/v DMSO) of each compound or control was added per well. After addition of compounds and controls, plates were allowed to incubate for an additional 120 minutes at room temperature. All assays were performed in triplicate. Polarization was monitored using an EnVision Multilabel reader (Perkin-Elmer, Waltham, Mass.) by exciting the FP probe at 530±25 nm, and monitoring fluorescence intensity of both parallel and perpendicular polarized light at 579±25 nm. Readout was in millipolarization units (mP).
Signal gain and G factors were determined in wells containing 200 μM ADEP 2378, which had been previously verified (data not shown) as containing completely unbound ADEP 2591. Data collected was normalized to values obtained from positive (200 μM ADEP 2378) or negative (DMSO) controls. Curves were fit with non-linear regression using the equation “log [inhibitor] vs. Response-variable slope (four parameters)-symmetrical” in the program Prism 6 (GraphPad Software, La Jolla, Calif. USA, www.graphpad.com). The structures for ADEP 2378 and ADEP 2591 are shown above. ADEP 2378 is (E)-N—((S)-1-(((2R,6S,8aS,14aS,20S,23aS)-2,6-dimethyl-5,8,14,19,23-pentaoxooctadecahydro-1H,5H,14H,19H-pyrido[2,1-i]dipyrrolo[2,1-c:2′,1′-1][1]oxa[4,7,10,13]tetraazacyclohexadecin-20-yl)amino)-1-oxo-3-phenylpropan-2-yl)pent-2-enamide. ADEP 2591 is 5-(3-(3-((6S,9S,11aS,17S,20aS)-6,10-dimethyl-5,8,11,16,20-pentaoxo-17-((S)-2-((E)-pent-2-enamido)-3-phenylpropanamido)hexadecahydro-1H,5H,16H-dipyrrolo[2,1-c:2′,1′-1][1]oxa[4,7,10,13]tetraazacyclohexadecin-9-yl)propyl)thioureido)-2-(6-(dimethylamino)-3-(dimethyliminio)-3H-xanthen-9-yl)benzoate.

[3] = Plasma stability assay; assay type: in vitro ADME, human
In short: as §1

[4] = system: MRSA NRS70; test: Minimal inhibitory concentration, microbroth dilution; assay type: cell-based; conditions: Staphylococcus aureus
In short: (§2)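 Compound was diluted twofold in the appropriate broth. Bacterial suspension (approx. 10^5 cfu/mL) was then added in equal volume, giving a maximum test concentration of 200 μM. After aerobic overnight incubation at 37 °C, wells were inspected visually for growth.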

[5] = system: S. aureus USA 300; test: as above; assay type: cell-based; conditions: Staphylococcus aureus
In short: as §2

[6] = system: E. faecails; test: as above; assay type: cell-based; conditions: Enterococcus faecalis
In short: as §2

[7] = system: S. aureus ATCC 29213; test: as above; assay type: cell-based; conditions: Staphylococcus aureus
In short: as §2

[8] = system: S. aureus ΔClpP; test: as above; assay type: cell-based, Staphylococcus aureus; conditions: MIC; ClpP inactivated
In short: as §2

[9] = MIC, read-out: Minimal Inhibitory Concentrations (μM) MRSA NRS70
[10] = USA300, MIC, read-out: Minimal Inhibitory Concentrations (μM) S. aureus USA 300
[11] = MIC, read-out: Minimal Inhibitory Concentrations (μM) E. faecails
[12] = ATCC29213, MIC, read-out: Minimal Inhibitory Concentrations (μM) S. aureus ATCC 29213

SMILES	Mouse ([1]; mouse, 10 μM) [h]	IC50 [2] [µM]	Human ([3]; human, 10 μM) [h]	MIC [4, 9] [µM]	MIC [5, 10] [µM]	MIC [6, 11] [µM]	MIC [7, 12] [µM]	Minimal Inhibitory Concentrations (μM) S. aureus ΔClpP [8] [µM]	Mouse ([1]; plasma stability half-life, mouse plasma, 37° C.) [h]	Human ([3]; plasma stability half-life, human plasma, 37° C.) [h]	MIC ([4]; read-out: Minimal Inhibitory Concentrations (μM) MRSA NRS70, MIC) [µM]	MIC ([5]; USA300, read-out: Minimal Inhibitory Concentrations (μM) S. aureus USA 300, MIC) [µM]	MIC ([6]; read-out: Minimal Inhibitory Concentrations (μM) E. faecails, MIC) [µM]	MIC ([7]; ATCC29213, read-out: Minimal Inhibitory Concentrations (μM) S. aureus ATCC 29213, MIC) [µM]
Cc1cccc(C[C@H](NC(=O)Nc2ccc(Cl)cc2F)C(=O)N[C@H]2COC(=O)[C@@H]3C[C@@H](C)CN3C(=O)[C@H](C)NC(=O)[C@@H]3CN(C)CCN3C(=O)[C@@H]3CCCN3C2=O)c1 [Compound 13, (S)-2-(3-(4-CHLORO-2-FLUOROPHENYL)UREIDO)-3-(M-TOLYL)-N-((6AS,12S,15AS,17R,21S,23AS)-2,17,21-TRIMETHYL-6,11,15,20,23-PENTAOXOOCTADECAHYDRO-2H,6H,11H,15H-PYRAZINO[2,1-I]DIPYRROLO[2,1-C:2′,1′-L][1]OXA[4,7,10,13]TETRAAZACYCLOHEXADECIN-12-YL)PROPANAMIDE] ({NH(4-Cl-2-F-phenyl)-CO}-[Phe(3-Me)]SP[Piperazine(2S-CO,4-Me)]A[Pro(4R-Me)]; ester 2-C)	10.74 ± 0.8	16.4 ± 0.8	67.3 ± 13.7	1.25 (≈ 1.03 µg/mL)	2.5 (≈ 2.06 µg/mL)	0.625 (≈ 0.516 µg/mL)	1.25 (≈ 1.03 µg/mL)	>20						
Cc1cccc(C[C@H](NC(=O)Nc2ccc(Cl)c(F)c2)C(=O)N[C@H]2COC(=O)[C@@H]3C[C@@H](C)CN3C(=O)[C@H](C)NC(=O)[C@@H]3CN(C)CCN3C(=O)[C@@H]3CCCN3C2=O)c1 [Compound 14, (S)-2-(3-(4-CHLORO-3-FLUOROPHENYL)UREIDO)-3-(M-TOLYL)-N-((6AS,12S,15AS,17R,21S,23AS)-2,17,21-TRIMETHYL-6,11,15,20,23-PENTAOXOOCTADECAHYDRO-2H,6H,11H,15H-PYRAZINO[2,1-I]DIPYRROLO[2,1-C:2′,1′-L][1]OXA[4,7,10,13]TETRAAZACYCLOHEXADECIN-12-YL)PROPANAMIDE] ({X2-CO}-[Phe(3-Me)]SP[Piperazine(2S-CO,4-Me)]A[Pro(4R-Me)]; ester 2-C)	9.55 ± 0.8	5.19 ± 0.2	97.65 ± 17.0	2.5 (≈ 2.06 µg/mL)	5 (≈ 4.13 µg/mL)	1.25 (≈ 1.03 µg/mL)	5 (≈ 4.13 µg/mL)	>20						
Cc1ccc(NC(=O)N[C@@H](Cc2cccc(C)c2)C(=O)N[C@H]2COC(=O)[C@@H]3C[C@@H](C)CN3C(=O)[C@H](C)NC(=O)[C@@H]3CN(C)CCN3C(=O)[C@@H]3CCCN3C2=O)cc1 [Compound 15, (S)-3-(M-TOLYL)-2-(3-(P-TOLYL)UREIDO)-N-((6AS,12S,15AS,17R,21S,23AS)-2,17,21-TRIMETHYL-6,11,15,20,23-PENTAOXOOCTADECAHYDRO-2H,6H,11H,15H-PYRAZINO[2,1-I]DIPYRROLO[2,1-C:2′,1′-L][1]OXA[4,7,10,13]TETRAAZACYCLOHEXADECIN-12-YL)PROPANAMIDE] ({NH(4-Me-phenyl)-CO}-[Phe(3-Me)]SP[Piperazine(2S-CO,4-Me)]A[Pro(4R-Me)]; ester 2-C)		8.12 ± 0.2						>20	5.95 ± 0.6	>50	2.5 (≈ 1.97 µg/mL)	5 (≈ 3.93 µg/mL)	1.25 (≈ 0.984 µg/mL)	2.5 (≈ 1.97 µg/mL)
CCc1ccc(NC(=O)N[C@@H](Cc2cccc(C)c2)C(=O)N[C@H]2COC(=O)[C@@H]3C[C@@H](C)CN3C(=O)[C@H](C)NC(=O)[C@@H]3CN(C)CCN3C(=O)[C@@H]3CCCN3C2=O)cc1 [Compound 16, (S)-2-(3-(4-ETHYLPHENYL)UREIDO)-3-(M-TOLYL)-N-((6AS,12S,15AS,17R,21S,23AS)-2,17,21-TRIMETHYL-6,11,15,20,23-PENTAOXOOCTADECAHYDRO-2H,6H,11H,15H-PYRAZINO[2,1-I]DIPYRROLO[2,1-C:2′,1′-L][1]OXA[4,7,10,13]TETRAAZACYCLOHEXADECIN-12-YL)PROPANAMIDE] ({NH(4-Et-phenyl)-CO}-[Phe(3-Me)]SP[Piperazine(2S-CO,4-Me)]A[Pro(4R-Me)]; ester 2-C)	6.86 ± 0.7	5.46 ± 0.2	>50	0.313 (≈ 0.251 µg/mL)	0.625 (≈ 0.501 µg/mL)	0.156 (≈ 0.125 µg/mL)	1.25 (≈ 1 µg/mL)	>20						
Cc1cccc(C[C@H](NC(=O)Nc2ccc3c(c2)OCO3)C(=O)N[C@H]2COC(=O)[C@@H]3C[C@@H](C)CN3C(=O)[C@H](C)NC(=O)[C@@H]3CN(C)CCN3C(=O)[C@@H]3CCCN3C2=O)c1 [Compound 17, (S)-2-(3-(BENZO[D][1,3]DIOXOL-5-YL)UREIDO)-3-(M-TOLYL)-N-((6AS,12S,15AS,17R,21S,23AS)-2,17,21-TRIMETHYL-6,11,15,20,23-PENTAOXOOCTADECAHYDRO-2H,6H,11H,15H-PYRAZINO[2,1-I]DIPYRROLO[2,1-C:2′,1′-L][1]OXA[4,7,10,13]TETRAAZACYCLOHEXADECIN-12-YL)PROPANAMIDE] ({NH(1,3-benzodioxol-5-yl)-CO}-[Phe(3-Me)]SP[Piperazine(2S-CO,4-Me)]A[Pro(4R-Me)]; ester 2-C)	6.46 ± 0.4	6.02 ± 0.2	51.18 ± 6.0	5 (≈ 4.08 µg/mL)	10 (≈ 8.17 µg/mL)	1.25 (≈ 1.02 µg/mL)	20 (≈ 16.3 µg/mL)	>20						
C[C@@H]1C[C@H]2C(=O)OC[C@H](NC(=O)[C@H](Cc3cccc(C(F)(F)F)c3)NC(=O)Nc3ccc(Cl)cc3F)C(=O)N3CCC[C@H]3C(=O)N3CCN(C)C[C@H]3C(=O)N[C@@H](C)C(=O)N2C1 [Compound 18, (S)-2-(3-(4-CHLORO-2-FLUOROPHENYL)UREIDO)-3-(3-(TRIFLUOROMETHYL)PHENYL)-N-((6AS,12S,15AS,17R,21S,23AS)-2,17,21-TRIMETHYL-6,11,15,20,23-PENTAOXOOCTADECAHYDRO-2H,6H,11H,15H-PYRAZINO[2,1-I]DIPYRROLO[2,1-C:2′,1′-L][1]OXA[4,7,10,13]TETRAAZACYCLOHEXADECIN-12-YL)PROPANAMIDE] ({NH(4-Cl-2-F-phenyl)-CO}-[Phe(3-CF3)]SP[Piperazine(2S-CO,4-Me)]A[Pro(4R-Me)]; ester 2-C)	66.31	4.79 ± 0.27	46.62	5 (≈ 4.4 µg/mL)	10 (≈ 8.79 µg/mL)	0.313 (≈ 0.275 µg/mL)	10 (≈ 8.79 µg/mL)	>20						
COc1cccc(C[C@H](NC(=O)Nc2ccc(Cl)cc2F)C(=O)N[C@H]2COC(=O)[C@@H]3C[C@@H](C)CN3C(=O)[C@H](C)NC(=O)[C@@H]3CN(C)CCN3C(=O)[C@@H]3CCCN3C2=O)c1 [Compound 19, (S)-2-(3-(4-CHLORO-2-FLUOROPHENYL)UREIDO)-3-(3-METHOXYPHENYL)-N-((6AS,12S,15AS,17R,21S,23AS)-2,17,21-TRIMETHYL-6,11,15,20,23-PENTAOXOOCTADECAHYDRO-2H,6H,11H,15H-PYRAZINO[2,1-I]DIPYRROLO[2,1-C:2′,1′-L][1]OXA[4,7,10,13]TETRAAZACYCLOHEXADECIN-12-YL)PROPANAMIDE] ({NH(4-Cl-2-F-phenyl)-CO}-[Phe(3-OMe)]SP[Piperazine(2S-CO,4-Me)]A[Pro(4R-Me)]; ester 2-C)	12.82	6.05 ± 0.3	62.38	10 (≈ 8.41 µg/mL)	10 (≈ 8.41 µg/mL)	10 (≈ 8.41 µg/mL)	10 (≈ 8.41 µg/mL)	>20						
